Molecular target: 5-LOX (5-lipoxygenase)
Assay: 5-Lipoxygenase inhibitory assay
Type: biochemical
Conditions: conc. 0.001, 0.01, 1.0 and 10 µM; zileuton positive control; read-out: 5-LOX inhibition IC50
Experimental: Optical rotation was estimated using a 341LC Perkin-Elmer polarimeter (Perkin-Elmer, Waltham, MA, USA). UV and IR were assessed employing Shimadzu UV/VIS 1601 and IR-400 spectrophotometers (Shimadzu, Kyoto, Japan), respectively. Orbitrap LTQ (ThermoFinnigan, Bremen, Germany) and 850 INOVA BRUKER (Bruker BioSpin, Billerica, MA, USA) were utilized for HRESIMS and NMR measuring. The chromatographic investigation was achieved utilizing SiO260/Sephadex LH-20/RP-18, in addition to a 6-mL RP-18 LiChrolut extraction tube (Merck/Darmstadt/Germany).
IC50s were estimated by regression analysis (GraphPad-InStat 3, GraphPad Software, San Diego, CA, USA). The % 5-LOX inhibition of and IC50s are listed as mean-values ±SD. Statistical significance was analyzed among the samples by one-way-ANOVA and subsequently by Tukey–Kramer test (p < 0.005).

SMILES | IC50 [nM]
C=C(CCC(C)C1(O)CCC2C3=C(C(O)C(OC(C)=O)C21C)C1(C)CC(O)C(OC(C)=O)C(C)(C)C1CC3)C(C)C (stereo not drawn) [Compound 1, integracide L] | 3450
C=C(CC[C@@H](C)[C@H]1CC=C2C3=C([C@@H](O)[C@H](OC(C)=O)[C@@]21C)[C@@]1(C)C[C@@H](O)[C@H](O)C(C)(C)[C@@H]1CC3)C(C)C [Compound 2, integracide B] | 3970
C=C(CCC(C)C1CC=C2C3=C(C(O)C(OC(C)=O)C21C)C1(C)CC(O)C(OC(C)=O)C(C)(C)C1CC3)C(C)C (stereo not drawn) [Compound 3, integracide F] | 2760
C=C(CCC(C)C1CC=C2C3=C(C(O)C(OC(C)=O)C21C)C1(C)CC(O)C(OC(=O)CCCCCCCCCO)C(C)(C)C1CC3)C(C)C (stereo not drawn) [Compound 4, integracide G] | 1180
C=C(CCC(C)C1CC=C2C3=C(C(O)C(OC(C)=O)C21C)C1(C)CC(OC(C)=O)C(OC(C)=O)C(C)(C)C1CC3)C(C)C (stereo not drawn) [Compound 5, integracide H] | 1460
C=C(CCC(C)C1CC=C2C3=C(C(O)C(OC(C)=O)C21C)C1(C)CC(O)C(OC(=O)c2ccc(O)cc2)C(C)(C)C1CC3)C(C)C (stereo not drawn) [Compound 6, integracide J] | 2010

From article PMC9782297, “Integracides: Tetracyclic Triterpenoids from Fusarium sp.—Their 5-Lipoxygenase Inhibitory Potential and Structure–Activity Relation Using In Vitro and Molecular Docking Studies” (Life, 2022)
